Columns and labels:
yeast [1] = settings: previously established (ref. 16); cited from earlier work
[2] = tested on: prototrophic wildtype (WT) strain FY4/5; assay: Constituent toxicity: ethanol titer of high-gravity fermentation in YSC with single inhibitors; type: cell-based, Saccharomyces cerevisiae; settings: for effect of KCl alone on ethanol titer: plus 50 mM KCl only; for additional boost of ethanol production by K+/pH adjustment: 50 mM KCl and NH4OH to pH 6 vs unadjusted
Description: To systematically characterize the impact of these constituent toxicities, ethanol production was assessed in yeast synthetic complete medium (YSC) with the 3 inhibitors added individually at equimolar concentration. As a completely chemically-defined formulation with trace vitamins, minerals, and amino acids, YSC lacks the undefined extracts contained in “rich” media that could supply unknown components to boost or hinder tolerance. […] For the constituent toxicity studies, prototrophic strain FY4/5 was expanded in a starter culture of YSC containing 150 g/L glucose and grown overnight to approximately OD600=10. To mimic industrial high cell density conditions, 100 OD600 units of cells per fermentation were harvested, washed with an equal volume of room temperature distilled and deionized water, and cell pellets resuspended in 4 mL media for a production cell density of approximately OD600=25 (9.9 g DCW/L). Fermentation media consisted of 250 g/L glucose in YSC and were supplemented with (left to right in FIG. 1A) 6 mM NH4Cl, 50/6 mM KCl/NH4OH, 100/128 mM acetic acid/NH4Cl, 100/50/128 mM acetic acid/KCl/NH4Cl, 100/50/128 mM acetic acid/KCl/NH4OH, 100/11 mM furfural/NHCl, 100/50/11 mM furfural/KCl/NH4OH, 100/7 mM 2-furanmethanol (FF—OH)/NHCl, 100/50/7 mM FF—OH/KCl/NH4Cl, 100/50/7 mM FF—OH/KCl/NHOH, 100/7 mM 5-hydroxymethyl-furfural (HMF)/NH4Cl, 100/50/7 mM HMF/KCl/NHOH, 100/7 mM furan-2,5-dimethanol (HMF-OH)/NH4Cl, 100/50/7 mM HMF-OH/KCl/NH4Cl, or 100/50/7 mM HMF-OH/KCl/NH4OH.
Inhibitor supplementation for the additionally screened conditions in FIGS. 2A-2C were: 50/60 mM acetic acid/NHCl, 50/50/60 mM acetic acid/KCl/NH4OH, 150/180 mM acetic acid/NH4Cl, 150/50/180 mM acetic acid/KCl/NH4OH, 50/9 mM furfural/NH4Cl, 50/50/9 mM furfural/KCl/NH4OH, 50/6 mM FF—OH/NHCl, 50/50/6 mM FF—OH/KCl/NH4OH, 150/15 mM furfural/NH4Cl. 150/50/15 mM furfural/KCl/NH4OH, 150/9 mM FF—OH/NH4Cl, 150/50/9 mM FF—OH/KCl/NH4OH, 50/6 mM HMF/NHCl, 50/50/6 mM HMF/KCl/NH4OH, 50/6 mM HMF-OH/NH4Cl, 50/50/6 mM HMF-OH/KCl/NH4OH, 150/11 mM HMF/NH4Cl, 150/50/11 mM HMF/KCl/NH4OH, 150/9 mM HMF-OH/NHCl, or 150/50/9 mM HMF-OH/KCl/NH4OH. The “/” notation is used for visual abbreviation but indicates the addition of all components during preparation. […] Furfural (Sigma-Aldrich #185914), HMF (Sigma-Aldrich #H40807), FF—OH (Sigma-Aldrich #W249106), and HMF-OH (Santa Cruz Biotechnology #sc-210242, scbt.com) were added directly to media in their supplier, concentrated forms to minimize the addition of volume. […] Fermentation samples of 550 μL were harvested after 48 h, cells removed by centrifugation (16,870×g, 2 min), and supernatants 0.45 μm syringe-filtered (Fisher Scientific #50-109-8735, fishersci.com) into glass HPLC vials and stored at 4° C. until analysis. Similarly, pre-inoculation fermentation media were syringe-filtered and diluted 1:5 in water for HPLC verification of starting glucose and inhibitor concentrations.
Analytes were separated isocratically in 5 mM sulfuric acid at 65° C. using a flow rate of […]. Under these conditions, retention times were approximately as follows: glucose 9.2 min, xylose 9.9 min, lactic acid 13.1 min, glycerol 13.8 min, acetic acid 15.3 min, ethanol 22.3 min, HMF 30.2 min, and furfural 45.0 min.

yeast [3] = settings: prior experience
[4] = tested on: medium toxified to 40/28/55 mM furfural/HMF/acetic acid; settings: Saccharomyces cerevisiae, pH 6
[5] = 100 mM of the substance in YSC, 250 g/L glucose, 48 h, 30 °C, no K+/pH adjustment
[6] = 100 mM of the substance, plus 50 mM KCl and NH4OH to pH 6

Row | Compound | ethanol titer [2, 5] [g/L] | ethanol titer [2, 6] [g/L] | effect of KCl alone on ethanol titer ([2]; 100 mM of the substance) | also measured
1 | [K+] [K^+] | – | – | – | concentration up to which effects are fermentation-beneficial (yeast [1]): at least 110 mM
2 | OCc1ccco1 [FF—OH, 2-furanmethanol] | 35 ± 0.4 | 59 ± 0.5 | improvements intermediate to those with K+/pH together | additional boost of ethanol production by K+/pH adjustment ([2]; 100 mM): 69%; tolerated more than furfural at equimolar concentration (ethanol output) ([2]; 100 mM, FF-OH vs FF, no K+/pH adjustment): 9 ×
3 | O=Cc1ccco1 [furfural] | 4 ± 0.3 | – | – | –
4 | Cl.N [NH4Cl] | – | – | – | concentration tolerated with no detectable changes on ethanol titer (yeast [3]): at least 200 mM
5 | CC(=O)O [acetic acid] | 17 ± 0.1 | 109 ± 0.6 | no amelioration | –
6 | O=Cc1ccc(CO)o1 [HMF, 5-hydroxymethyl-furfural] | 34 ± 0.3 | – | – | concentration tolerable by yeast for growth to commence [4]: approximately 1.5 g/L
7 | OCc1ccc(CO)o1 [HMF-OH, furan-2,5-dimethanol] | – | 69 ± 0.6 | improvements intermediate to those with K+/pH together | additional boost of ethanol production by K+/pH adjustment ([2]; 100 mM): 39%; higher ethanol titer than cognate aldehyde ([2]; 100 mM, HMF-OH vs HMF, no K+/pH adjustment): 45%
8 | [Ca+2] [Ca^2+] | – | – | – | effect on fermentation (yeast [1]): fermentation-neutral
